Experimental data taken from patent US8940911B2, “Squarylated lactones inhibitors for bacterial biofilm formation” (Syracuse University, priority 2012, dated 2015).

What was measured:
[1] = tested on: E. coli RP437; test: Static biofilm inhibition assay (crystal violet, 96-well plate); type: cell-based, Escherichia coli; conditions: E. coli RP437, 200 μM, 24 h, crystal violet
Source text: A primary objective was to test the ability of SHLs to inhibit biofilm formation against E. coli RP437. […] Viable controls were required that would allow us to measure and compare the activity of SHLs against known biofilm inhibitors and naturally occurring AI-1 signal molecules. […] The activity of this class of molecule is presumably similar or even marginally higher than that of brominated furanone (BF8 48) (56%).
For the present invention, the E. coli RP437 biofilms were allowed to develop in a 96-well plate in the absence or presence of SHLs. After 24 hours, the planktonic bacteria and remaining media were removed and the crystal violet was introduced in the wells. The bacterial biofilm being formed at the air/liquid interface on the inside wall of the well is stained readily by crystal violet. After removing the excess crystal violet and repeatedly washing the wells with water, followed by ethanol solubilization of the dye, allows quantification of the amount of biofilm by spectrophotometry (OD600). […] We believe that the observed biofilm inhibition activity cannot be directly attributed to any predominant structural feature inherent in the SHLs. Rather, the small deviations in the structures of the SHLs and their effect on biofilm formation could be a result of the nature of non-covalent forces that arise during SHLs presumed binding within the receptor active site.
An overnight culture of E. coli RP437 grown in LB media (OD600 of 1.0) containing streptomycin (10 μg/mL) was subsequently sub-cultured to an OD600 of 0.04 (1:100 dilution with LB media). To each well in the solvent resistant polypropylene or polystyrene-based 96-well microtiter plates were added 200 μL of the sub-cultured bacteria respectively. To each of the wells containing the bacterial cultures varying concentrations of the synthetic molecules was added and the contents in each well were gently mixed. Control wells comprised of untreated bacterial culture (four replicates) and the LB media (four replicates). The microtiter plates were then covered and wrapped in a Saran wrap and allowed to incubate at 37° C. for 24 hours without shaking. After that time, the microbial medium in each well was discarded and the remaining biofilm that was formed during incubation was stained with 225 μL of a 0.1% crystal violet solution and allowed to incubate at room temperature for 30 minutes. After the incubation period, the crystal violet was discarded and the wells were gently washed twice with water (230-250 μL) and allowed to air dry for 15-20 minutes. For the purpose of solubilizing the remaining crystal violet that had stained the biofilm present in the interior of the 96-well plates, a 250 μL solution of 95% ethanol was used. After the addition of 95% ethanol, the contents of each well were mixed thoroughly and allowed to sit for 15-20 minutes. Finally, the biofilm formed was quantified by transferring 100 μL of the ethanol solution into a fresh polystyrene microtiter dish that was subsequently read by an absorbance plate reader (A600). After elimination of background absorbance, the percentage inhibition was calculated by dividing the amount of absorbed crystal violet in wells that contained the synthetic compound by the amount of absorbed crystal violet in wells that contained bacteria only (control). Biofilm assays for each synthetic compound were repeated two to three times and each concentration considered for inhibition studies were tested over four replicates.

[2] = tested on: DsRed-express-labeled E. coli RP437; test: Confocal imaging of E. coli biofilms on stainless steel coupons (COMSTAT); type: cell-based, Escherichia coli; conditions: 200 μM, 24 h at 37° C., CLSM/COMSTAT
Protocol: The effects of SHLs upon the bacterial biofilm were examined; more specifically, the effect of SHLs upon the biofilm architecture. […] These studies were conducted by static biofilm assays employing crystal violet staining that indicates the total biomass that resides within a biofilm but provides no indication regarding the topology of the biofilms. To elucidate the topological features assumed by the E. coli RP437 biofilm in the presence of SHLs and BF8 48, studies of biofilms consisting of DsRed-express-labeled E. coli RP437 that is fluorescent and can be easily visualized by confocal laser scanning microscopy (CLSM) were performed. […] Further, the stacked images in vinyl-SHL 3 indicating the maximum thickness of the biofilm is considerably smaller than the biofilms in BF8 48 and the untreated E. coli samples. We developed the biofilms consisting of DsRed-express-labeled E. coli on stainless steel coupons (316 L, 1 in×1 in.) for 24 h at 37° C. that were treated with BF8 48 or SHLs or were left untreated. All the samples were analyzed with CLSM (see FIG. 8) and the maximum thickness of biofilms calculated using the COMSTAT software. […] Moreover, butyl-SHL 8 and butoxy-SCPA 46 reduce the biofilm thickness by 38% and 27%, respectively.
An overnight culture of E. coli RP437 pRSH103 grown in LB media (OD600 of 1.0) containing tetracycline (3 μg/mL) was subsequently sub-cultured to an OD600 of 0.04 (1:100 dilution with LB media). To each well in the solvent resistant polypropylene or polystyrene-based 24-well microtiter plates was added 200 μM synthetic molecules in DMSO solution respectively. In addition, to each of the wells containing the known concentrations of synthetic molecules was added 2 mL of the sub-cultured bacteria and the contents in each well were gently mixed. […] The fluorescent emission was detected with a LP 560 nm emission filter. The coupons were gently placed upside down on a microscope cover glass (24×60 mm, No. 2, VWR International LLC, West Chester, Pa., USA) and analyzed with CLSM. […]

[3] = tested on: SK-N-SH cells; test: Human neuroblastoma cancer cell cytotoxicity assay (CCK-8); type: cell-based; conditions: 200 or 300 μM, 1 h exposure, read after 24 h
Protocol: After examining the efficacy of SHLs at inhibiting biofilm, dispersing established biofilms, and reducing the maximum thickness of biofilms without being toxic to the planktonic bacterial cells, we tested the cytotoxicity of the key potent SHLs on the human neuroblastoma cancer cell line SK-N-SH. These studies were conducted such that the SK-N-SH cells were subjected to the maximum concentrations of the key potent SHLs tested on bacteria.
A previously grown T-flask of SK-N-SH cells was observed under a microscope to confirm the confluence of the cells. Next, the old media was discarded and the adherent cells were washed with ˜10 mL of MEM(−). The wash was discarded and 2 mL of Trypsin-EDTA solution was added to the T-flask and incubated for 10 minutes at 37° C. and at 5% atmosphere of CO2. Afterwards, the flask was viewed under a microscope to determine if the cells were suspended in the solution. Subsequently, ˜8 mL of MEM(+) was added to the flask and carefully mixed via pipette to break-up any large clusters of cells. 100 μL of the culture was added to an Eppendorf tube and combined with 100 μL of […]. A hemocytometer and glass cover slide was carefully cleaned with a kimwipe and ethanol. Placing the glass cover slide on top of the hemocytometer, 10 μL of the mixture in the Eppendorf tube was pipetted into the two grooves on the hemocytometer, avoiding the generation of bubbles. The hemocytometer was viewed one chamber at time under a microscope and the live cells were counted using the hemocytometer cell counting method. The remaining cell culture in the T-flask was diluted with MEM(+) to 25 mL such that there would be ˜5000 cells/mL. 100 μL of the culture was placed into wells on a 96 well plate such that one column had only MEM(+) and the wells on the outer perimeter of the plate were left empty. Four plates were made in this manner so that there would be plates for times 0, 24, 48, and 72 h. The plate was then incubated for 24 h at 37° C. and at 5% atmosphere of CO2. Subsequently, the old media was discarded and the wells were subjected to either 200 μM or 300 μM solutions of compounds 3, 4, 8, and 46 in MEM(+) (100 μL) such that one column still contained only MEM(+) and one column contained MEM(+) and untreated cells. The plate was incubated for 1 h and then the solutions were discarded and fresh MEM(+) media was added (100 μL). Each plate was then incubated for the desired time (0, 24, 48, or 72 h). After incubation, 10 μL of CCK-8 solution was added to each well and then the plate was incubated for 2 h followed by reading the OD450 with a microplate reader.

[4] = tested on: P. aeruginosa PAO1-GFP/pSMC2; test: Confocal microscopy analysis of P. aeruginosa biofilms (COMSTAT); type: cell-based, Pseudomonas aeruginosa; conditions: 400 μM, 24 h at 37° C., CLSM/COMSTAT
Protocol: FIG. 13 is a series of representative confocal laser scanning microscopy images of biofilm formation by P. aeruginosa PAO1-GFP/pSMC2 in the absence of inhibitor (A); and in the presence of 400 μM BF4 49 (B); 400 μM hexyl-SHL 9 (C); 400 μM tolyl-SHL 11 (D); and 400 μM thienyl-SHL 12 (E).
FIG. 14 is a graph of quantification of biofilm formation by P. aeruginosa PAO1-GFP/pSMC2 in the absence and presence of 400 μM SHLs 9, 11 and 12. Biomass, mean thickness, and surface area are quantified from fluorescence image using COMSTAT software. Z-Stack images from at least four different locations were used. Values are normalized by that of the brominated furanone-free control.
We developed the biofilms consisting of […] P. aeruginosa on stainless steel coupons (316 L, ⅜ in×⅜ in.) for 24 h at 37° C. in the absence or presence of 400 μM hexyl-SHL 9, tolyl-SHL 11, thienyl-SHL 12, and BF4 49. All the samples were analyzed with CLSM (see FIG. 13) and the biomass, surface area, and mean thickness of biofilms were calculated using the COMSTAT software. Tolyl-SHL 11 reduced the biomass by ˜90%, similar to that of the toxic BF4 49.

SMILES | biofilm inhibition (in words) [1] | inhibition of biofilm formation [1] [%] | further results
CCCCOc1c(OCCCC)c(=O)c1=O [BSQ 44, 3,4-dibutoxy-cyclobut-3-ene-1,2-dione, reference compound] | Poor biofilm inhibition | – | –
CC(C)Oc1c(OC(C)C)c(=O)c1=O [IPSQ 42, reference compound] | Poor biofilm inhibition | – | –
C=CCc1c(NC2CCOC2=O)c(=O)c1=O (stereo not drawn) [allyl-SHL2] | Poor biofilm inhibition | – | –
CCCCOc1c(NC2CCOC2=O)c(=O)c1=O (stereo not drawn) [butoxy-SHL 1] | weaker biofilm inhibition | – | –
CCCCc1c(NC2CCOC2=O)c(=O)c1=O (stereo not drawn) [butyl-SHL 8] | – | 48 | reduction of the maximum thickness of biofilm [2]: 38%; cytotoxicity on human neuroblastoma cancer cells (in words) [3]: does not appear to be toxic
CCCCCCc1c(NC2CCOC2=O)c(=O)c1=O (stereo not drawn) [hexyl-SHL 9] | – | 42 | P. aeruginosa biofilm inhibition (in words) [4]: mild
O=C1OCCC1Nc1c(-c2ccccc2)c(=O)c1=O (stereo not drawn) [phenyl-SHL 10] | – | 44 | –
C=Cc1c(NC2CCOC2=O)c(=O)c1=O [vinyl-L-SHL 4] | weaker biofilm inhibition | – | cytotoxicity on human neuroblastoma cancer cells (in words) [3]: toxic
